Source: PMC6287599, “2,6-Bis(2-Benzimidazolyl)Pyridine (BBP) Is a Potent and Selective Inhibitor of Small Conductance Calcium-Activated Potassium (SK) Channels” (Frontiers in Pharmacology, 2018)
“Also recorded” adds a separate entry of the source.

Experiments:
Kir2.1 = biological target: T1, Kir2.1 (Homo sapiens, UniProt P63252); test: Two-electrode voltage clamp in Xenopus laevis oocytes, Kir2.1; type: cell-based; settings: BBP 10 μM, TEVC, n = 5
T1 sequence (P63252 1-427): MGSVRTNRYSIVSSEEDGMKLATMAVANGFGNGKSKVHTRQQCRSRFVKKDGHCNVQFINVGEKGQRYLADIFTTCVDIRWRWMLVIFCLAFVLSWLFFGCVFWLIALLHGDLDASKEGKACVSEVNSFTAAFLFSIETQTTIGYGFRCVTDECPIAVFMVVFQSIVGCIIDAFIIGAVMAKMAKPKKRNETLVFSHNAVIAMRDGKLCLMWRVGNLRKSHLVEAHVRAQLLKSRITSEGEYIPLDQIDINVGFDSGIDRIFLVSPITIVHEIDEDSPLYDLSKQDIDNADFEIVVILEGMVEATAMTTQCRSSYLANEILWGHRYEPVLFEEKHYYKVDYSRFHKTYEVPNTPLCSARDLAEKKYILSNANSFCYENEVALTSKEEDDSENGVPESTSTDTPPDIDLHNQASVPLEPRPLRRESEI
Protocol: cRNA was prepared from linearized plasmids using the mMESSAGE mMACHINE T7 kit (Ambion, USA) and quantified by UV spectroscopy (NanoDrop, Thermo Scientific, Wilmington, USA). Xenopus laevis oocytes were acquired from EcoCyte Bioscience (Castrop-Rauxel, Germany). Oocytes were injected with 50 nL cRNA and currents were recorded after 2 days of incubation at 19°C. Currents were recorded at a sampling rate of 10 kHz using a TEVC amplifier (Dagan CA-1B; IL, USA), and borosilicate glass recording electrodes (Module Ohm, Herlev, Denmark), made with a DMZ Universal Puller (Zeitz Instruments, Martinsried, Germany) with a resistance of 0.5–1 MΩ when filled with 2 M KCl. Oocytes were superfused with Kulori (pH 7.4) solution containing NaCl 90 mM, KCl 4 mM, MgCl2 1 mM, CaCl2 1 mM, 4-(2-hydroxyethyl)-1-piperazineethanesulfonic acid 5 mM, and currents were elicited with the voltage protocols previously indicated (Skarsfeldt et al., [2016]), from a holding potential of −80 mV. […]
To assess the effect of BBP on other calcium-activated potassium channels (hBK, hSK3 WT, rSK3 H491N, and hIK), each individual current was first normalized to its cell size using membrane's capacitance (pA/pF) before statistical analysis. […] Statistical significance between saline and the effect of both BBP and the corresponding reference compound was determined for each channel using one-way ANOVA analysis. […]

hSK2 = hSK2 (Homo sapiens, UniProt Q9H2S1); test: Automated patch clamp (QPatch 16), whole cell, stable HEK293 cell line expressing hSK2; type: cell-based; settings: HEK stable line, 400 nM free intracellular calcium, mean ± SEM, n = 8
Protocol: Three different stable HEK293 cell lines expressing hSK1, hSK2 or hSK3 (NeuroSearch A/S, Ballerup, Denmark) and a CHO stable cell line expressing hERG (University of Copenhagen, Copenhagen, Denmark) were used for automated patch clamp. These cells were cultivated and prepared as previously described (Skarsfeldt et al., [2016]).
Automated patch clamp (QPatch 16, Sophion, Denmark) on SK-expressing HEK293 cell lines was conducted as previously described (Simó-Vicens et al., [2017b]). Briefly, SK currents were elicited by voltage-ramps starting at −80 mV and finishing at +80 mV from a holding potential of 0 mV. Extracellular solution contained 0.1 mM CaCl2, 3 mM MgCl2, 154 mM KCl, 10 mM HEPES and 10 mM glucose with pH 7.4. Intracellular solution for SK experiments contained 8.106 mM CaCl2 (final free calcium concentration of 400 nM), 1.167 mM MgCl2, 10 mM EGTA, 154 mM KCl, 10 mM HEPES, 31.25/ 10 mM KOH/EGTA and 15 mM KOH with pH 7.2. Automated patch clamp on hERG-expressing CHO cell line was performed also as previously described (Skarsfeldt et al., [2016]).
Individual IC50 values were calculated for each cell with the built-in nonlinear fit log(inhibitor) vs. normalized response equation:
Where Y is the normalized response, from 100, corresponding to current recorded during saline perfusion, down to 0, corresponding to currents recorded in the presence of bicuculline methiodide 100 μM. […]

IC50 (hSK2): 400 ± 100 nM
SMILES: c1cc(-c2nc3ccccc3[nH]2)nc(-c2nc3ccccc3[nH]2)c1 [BBP, 2,6-Bis(2-benzimidazolyl)pyridine]
Effect on Kir2.1 current (Kir2.1): did not have any effect; also recorded: did not significantly affect
